Measured values as given in patent publication US20220218831A1, “DEGRADATION OF AURORA KINASE (AURK) BY CONJUGATION OF AURK INHIBITORS WITH E3 LIGASE LIGAND” (Nemucore Medical Innovations, Inc., priority 2019, published 2022).

Test: Combination of the free target ligand of Formula II (GSK-1070916) with JQ1 (FIG. 3)
Details: GSK-1070916 combined with JQ1; FIG. 3 legend, no model or method printed

For `CCn1cc(-c2ccnc3[nH]c(-c4cccc(CN(C)C)c4)cc23)c(-c2ccc(NC(=O)N(C)C)cc2)n1` [GSK-1070916], the “effect of combination with JQ1” value was “synergistic effect”.
